The results in this text go back to patent publication US20050059735A1, “Cyclic amino acid derivatives useful as pharmaceutical agents” (priority 2000, published 2005).

Structures are written as SMILES. Where two headings read alike, the source gives them in different places.

One data set in a line: in vivo. As to conditions: rat, po.
For data set [1] the following is noted: rat, in vivo, po, 5 mg/kg.

One may read the half-life as the time in which the quantity being followed falls by half. Read a low half-life as rapid decline. Take `NCC1(CC(=O)O)CCCCC1` [gabapentin, 1-(aminomethyl)-cyclohexylacetic acid]: in “in vivo”, the half-life was 1.2 h.
In the case of `O=C(CC1(CNC(=O)c2ccccc2)CCCCC1)OCc1ccccc1` [Example 10, [1-(Benzoylamino-methyl)-cyclohexyl]-acetic acid benzyl ester], the half-life entry in data set [1] was “about 6 hrs”.
